Assay results: patent US20100190225A1, “D-PSICOSE PRODUCTION METHOD BY D-PSICOSE EPIMERASE” (CJ CHEILJEDANG CORP., priority 2005, published 2010)
Where two headings read alike, the source gives them in different places. Blank lines part the entries; values can stand above or below the molecule they belong to.

Tests used:
[1] = biological target: T1, psicose 3-epimerase (Agrobacterium fabrum, UniProt A9CH28); assay type: biochemical; conditions: for Relative activity (%): 1 mM metal ion added or EDTA treatment, 1.0% D-fructose, pH 7.5, 50° C., 20 minutes, None = 100; for effect of metal ion on enzyme activity: 1 mM metal ion, in words
T1 construct: made in house; host or cells: Escherichia coli BL21(DE3)
T1 sequence (A9CH28 with tags, fused parts or gaps): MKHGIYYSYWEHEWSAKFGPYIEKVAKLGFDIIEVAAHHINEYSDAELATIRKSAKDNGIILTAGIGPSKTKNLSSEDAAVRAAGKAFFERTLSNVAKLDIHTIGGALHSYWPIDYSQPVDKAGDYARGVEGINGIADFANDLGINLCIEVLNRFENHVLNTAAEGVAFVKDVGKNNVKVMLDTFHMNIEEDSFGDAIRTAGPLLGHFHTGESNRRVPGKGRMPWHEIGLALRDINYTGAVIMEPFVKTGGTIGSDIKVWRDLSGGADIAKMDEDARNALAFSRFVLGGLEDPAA

[2] = biological target: T1, psicose 3-epimerase; assay: Substrate specificity of psicose 3-epimerase; assay type: biochemical; conditions: for Relative activity (%) No metal ion added / Relative activity (%) Mn^2+ added: 10 mM monosaccharide as substrate, pH 7.5, 50° C., 20 minutes
Procedure: In the current Experimental Example, MALDI-TOF-MS was used for the measurement of the molecular weight of psicose 3-epimerase, and cinnamic acid was used as a matrix. The enzyme activity was measured by using D-fructose as a substrate. For the measurement of the enzyme activity, psicose 3-epimerase was allowed to react with D-fructose in a 50 mM PIPES buffer solution containing 1.0% of D-fructose, at pH 7.5 and at 50° C. for 20 minutes, and then the reaction solution was heated at 100° C. for 5 minutes to terminate the reaction. The PIPES buffer solution containing D-fructose was prepared by dissolving D-fructose in PIPES buffer solution at pH 7 to 8 to a concentration of 60 to 70% by weight, and the PIPES buffer solution containing D-fructose was continuously added to a bioreactor maintained at 40 to 60° C. For the purpose of easy comparison of the enzyme activity, one unit of psicose 3-epimerase is defined as the amount of the psicose 3-epimerase needed to produce […] of D-psicose per one minute at pH 7.5 and at 50° C.
The concentrations of D-fructose, D-psicose, D-sorbose, D-tagatose, D-xylulose and D-ribulose were measured using a high pressure liquid chromatography system with a BP-100 calcium ion […] column and an RI detector. The column was conditioned to allow a flow of distilled water at a rate of 0.5 ml/min at 80° C.
Reaction of the psicose 3-epimerase was performed in a 50 mM PIPES buffer solution containing 0.04 units/ml of the psicose 3-epimerase and 10 mM each individually of the monosaccharides indicated in Table 2 below, at pH 7.5 and at 50° C. for 20 minutes, and then each of the reaction solutions were heated at 100° C. for 5 minutes to terminate the reaction. Then, the enzyme activity of the psicose 3-epimerase of each reaction solution was measured.

[3] = tested on: lipogenic enzymes; conditions: dietary, in words; cited from earlier work
[4] = in words; cited from earlier work
[5] = D-psicose production by free psicose 3-epimerase; assay type: biochemical; conditions: 700 g/L D-fructose; for D-Psicose: 14 units/ml, 1 mM Mn^2+, pH 7.0, 60° C.
Procedure: In order to produce D-psicose at high concentrations, the reaction was performed in a 50 mM PIPES buffer solution containing 14 units of psicose 3-epimerase/ml, 1 mM of Mn^2+ ions, and 700 g/L of D-fructose, at pH 7.0 and at 60° C. for various reaction times. Then, the reaction was terminated by heating the reaction solution at 100° C. for 5 minutes, and the enzyme activity was measured.

[6] = Activity of psicose 3-epimerase according to pH and temperature changes; assay type: biochemical
Procedure: In Example 5, the psicose 3-epimerase was reacted with D-fructose at various pH values and temperatures, and the enzyme activities obtained at the various pH values and temperatures were compared. In order to investigate the pH effect, the reaction of the psicose 3-epimerase was performed in a 50 mM PIPES buffer solution containing 0.04 units of psicose 3-epimerase/ml and 1.0% of D-fructose at pH values ranging from 6.5 to 7.5, and the same reaction was performed in a 50 mM EPPS buffer solution containing 0.04 units of psicose 3-epimerase/ml and 1.0% of D-fructose at pH values ranging from 7.5 to 8.5. Here, the respective reactions were performed at 50° C. when metal ions were not added, and at 60° C. when Mn ions were added, respectively for 20 minutes. Then, the reactions were terminated by heating the reaction solutions at 100° C. for 5 minutes, and the enzyme activities were measured. The results are illustrated in FIG. 1A.
In order to investigate the temperature effect, the reaction was performed in a 50 mM PIPES buffer solution containing 0.04 units of psicose 3-epimerase/ml and 1.0% of D-fructose at temperatures ranging from 30° C. to 70° C. for 20 minutes, at pH 7.5 when metal ions were not added, and at pH 7.0 when Mn ions were added. The reactions were terminated by heating the reaction solution at 100° C. for 5 minutes, and the enzyme activities were measured. The results are illustrated in FIG. 1B.

[7] = Equilibrium between D-psicose and D-fructose achieved by psicose 3-epimerase; assay type: biochemical
Procedure: In Example 6, the reaction of the psicose 3-epimerase was performed in a 50 mM PIPES buffer solution containing 0.04 units of psicose 3-epimerase/ml, 1 mM of Mn^2+ ions, and 0.1% of D-psicose and D-fructose together, at pH 7.0 and at temperatures ranging from 30° C. to 60° C. for 24 hours to allow the reaction to proceed sufficiently, in order to determine the equilibrium between D-psicose and D-fructose. Then, the reactions were terminated by heating the reaction solution at 100° C. for 5 minutes, and the enzyme activity was measured.
As a result, the reaction was started with 5 initial ratios of D-psicose to D-fructose, of 0:100, 25:75, 50:50, 75:25, and 100:0, and the final ratios of D-psicose to D-fructose were determined after 24 hours of the reaction, as shown in FIG. 2. Referring to FIG. 2, the ratio of D-psicose to D-fructose was 32:68 at 30° C., while the same ratio was 37:63 at 60° C.

Molecule: [Ca+2] [Ca^2+]
Relative activity (%) [1]: 64.4%

Molecule: O=C(CO)[C@@H](O)[C@H](O)[C@H](O)COP(=O)(O)O [D-Fructose-6-phosphate]
Relative activity (%) No metal ion added [2]: 0.0%
Relative activity (%) Mn^2+ added [2]: 0.0%

Molecule: [Al+3] [Al^3+]
Relative activity (%) [1]: 100%

Molecule: O=C(CO)[C@H](O)[C@H](O)COP(=O)(O)O [D-Ribulose-5-phosphate]
Relative activity (%) No metal ion added [2]: 0.0%
Relative activity (%) Mn^2+ added [2]: 0.0%

Molecule: O=C(CO)[C@@H](O)[C@H](O)CO [D-Xylulose]
Relative activity (%) No metal ion added [2]: 5.8%
Relative activity (%) Mn^2+ added [2]: 12.4%

Molecule: O=C(CO)[C@H](O)[C@H](O)CO [D-Ribulose]
Relative activity (%) No metal ion added [2]: 10.2%
Relative activity (%) Mn^2+ added [2]: 15.4%

Molecule: [Cu+2] [Cu^2+]
Relative activity (%) [1]: 2.2%
effect of metal ion on enzyme activity [1]: suppressed the enzyme activity

Molecule: [Co+2] [Co^2+]
Relative activity (%) [1]: 268%
effect of metal ion on enzyme activity [1]: enhanced the enzyme activity

Molecule: O=C(CO)[C@@H](O)[C@H](O)[C@H](O)CO [D-Fructose]
Relative activity (%) No metal ion added [2]: 37.9%
Relative activity (%) Mn^2+ added [2]: 139%

Molecule: [Ba+2] [Ba^2+]
Relative activity (%) [1]: 95.6%

Molecule: O=C(CO)[C@H](O)[C@H](O)[C@H](O)CO [D-Psicose]
Relative activity (%) No metal ion added [2]: 100%
Relative activity (%) Mn^2+ added [2]: 274%
affinity of the psicose 3-epimerase for substrate ([2]; D-psicose compared with D-tagatose, in words): higher affinity
effect on activity of lipogenic enzymes [3]: suppressing the activity of lipogenic enzymes
metabolism in the human body [4]: almost non-metabolizable

Further lines, with some results ahead:

Relative activity (%) [1]: 100%
Molecule: [Mg+2] [Mg^2+]

Relative activity (%) No metal ion added [2]: 0.8%
Relative activity (%) Mn^2+ added [2]: 1.7%
Molecule: O=C(CO)[C@H](O)[C@@H](O)[C@H](O)CO [D-Sorbose]

Relative activity (%) [1]: 121%
Relative activity (%) ([1]; listed as Fe^2+): 139%
Molecule: [Fe+3] [Fe^3+]

Relative activity (%) [1]: 93.3%
Molecule: [Mo+2] [Mo^2+]

Relative activity (%) [1]: 274%
effect of metal ion on enzyme activity [1]: enhanced the enzyme activity
Molecule: [Mn+2] [Mn^2+]

Relative activity (%) [1]: 20.0%
Molecule: O=C(O)CN(CCN(CC(=O)O)CC(=O)O)CC(=O)O [EDTA]

Relative activity (%) No metal ion added [2]: 65.5%
Relative activity (%) Mn^2+ added [2]: 92.3%
Molecule: O=C(CO)[C@@H](O)[C@@H](O)[C@H](O)CO [D-Tagatose]

Relative activity (%) [1]: 4.4%
effect of metal ion on enzyme activity [1]: suppressed the enzyme activity
Molecule: [Zn+2] [Zn^2+]

D-Psicose ([5]; reaction time 0 min): 0 g/L
D-Psicose ([5]; reaction time 10 min): 93 g/L
D-Psicose ([5]; reaction time 30 min): 155 g/L
D-Psicose ([5]; reaction time 60 min): 180 g/L
D-Psicose ([5]; reaction time 120 min): 211 g/L
D-Psicose ([5]; reaction time 180 min): 210 g/L
D-Psicose ([5]; reaction time 240 min): 210 g/L
D-Psicose ([5]; reaction time 300 min): 209 g/L
superiority to the yield achievable by conventional methods of producing D-psicose [7]: approximately 20%
B1: psicose 3-epimerase: enzyme (SEQ ID NO:1) from Agrobacterium tumefaciens ATCC33970 that converts D-fructose to D-psicose; monomer, metalloenzyme (protein, listed as Agrobacterium tumefaciens)
chain: T1 sequence (A9CH28 with tags, fused parts or gaps)
D-psicose conversion yield ([5]; reaction time 120 minutes): 30.2%
optimal pH ([6]; Mn^2+ ions added): 7.0
optimal temperature ([6]; Mn^2+ ions added): 60 °C
optimal pH ([6]; metal ions not added): 7.5
optimal temperature ([6]; metal ions not added): 50 °C
